pIC50: −log10 of the molar value. Read-outs that look alike come from different tables or passages of the source.
Tests used:
[1] = system: T1, EPSPS (5-enolpyruvylshikimate-3-phosphate synthase); experiment: EPSPS activity by phosphate release (EnzChek Phosphate Assay), leaf extract; assay type: biochemical, Steinchisma laxum; settings: R population (Pro106Ser found in R plants); glyphosate 0-1000 µM; stated gain; read-out: I50
T1 construct: native enzyme extracted from leaf tissue, not purified to homogeneity, activity per total soluble protein

[2] = system: T1, EPSPS (5-enolpyruvylshikimate-3-phosphate synthase); experiment: as above; assay type: biochemical, Steinchisma laxum; settings: S population; glyphosate 0-1000 µM; read-out: I50

O=C(O)CNCP(=O)(O)O [glyphosate, N-(phosphonomethyl) glycine]
pIC50 [1]: 4.83 | pIC50 [2]: 6.01

Reference: publication PMC10534422, “Divergence in Glyphosate Susceptibility between Steinchisma laxum Populations Involves a Pro106Ser Mutation” (Plants, 2023)
